Earlier results in patent publication US20240000802A1, “DIFLUPREDNATE FOR REDUCING THE ADVERSE EFFECTS OF OCULAR INFLAMMATION” (SUN PHARMA ADVANCED RESEARCH COMPANY LIMITED, priority 2020, published 2024).

CCCC(=O)O[C@]1(C(=O)COC(C)=O)CC[C@H]2[C@@H]3C[C@H](F)C4=CC(=O)C=C[C@]4(C)[C@@]3(F)[C@@H](O)C[C@@]21C [Difluprednate]
solubility in aqueous vehicle: practically insoluble
